# How the values were obtained:
# Format in all cases: cell-based, human
# DLEC1 = experiment: Positive control: re-expression and demethylation of DLEC1 (qPCR, clonal bisulphite sequencing); settings: A2780 and CaOV3 cells treated with 5-Aza-dC
# Experimental: (§1) Experiments were performed in triplicate using ovarian cancer cell lines A2780 and CaOV3, derived from primary Type II EOC. Cell lines were treated at 30% confluence with 5 μM and 2.5 μMrespectively (concentrations previously optimized to minimize cellular toxicity, data not shown), with the DNA methyltransferase inhibitor 5-aza-2′ deoxycytidine (5-Aza-dC), (Sigma Aldrich, St. Louis Mo., USA) for 24 hours. Cells were then expanded to 90% confluency, media changed every 24 hr before extracting RNA (RNeasy, Qiagen). As a positive control, re-expression and DNA demethylation for the methylated gene DLEC1 was verified by qPCR and clonal bisulphite sequencing.
# A2780 cells = experiment: Pharmacological reactivation of methylated genes by 5-Aza-dC, Affymetrix U133 plus 2 expression arrays, A2780; settings: A2780, 5 μM, 24 hours
# Experimental: as §1
# (§2) Total RNA from A2780 and CaOV3 cell lines, plus and minus treatment with 5-Aza-dC was characterized on the Agilent bioanalyzer RNA nano chip (Agilent, Foster City Calif., USA) for an RNA integrity number (RIN) of >9.0, labeled and hybridized to Affymetrix human genome U133 plus 2 GeneChips essentially according to manufacturer's instructions. The GeneChip scans were analyzed by GCOS (Affymetrix) and resulting probeset intensities normalized by the robust multi-array average (RMA) method (Irizarry, et al., Biostatistics 4: 249-264, 2003). […] The data were normalized separately for each cell line and robust multichip average (RMA) values for analysis were imported into Genespring GX 7.3. Genes re-expressed by 5-Aza-dC were identified as “absent” (undetectable) in all three replicate untreated samples and “present” or “marginal” (detectable) in two of three replicate 5-Aza-dC treated samples.
# (§3) Three steps were implemented to identify aberrantly silenced and methylated genes in EOC. First, to identify genes potentially silenced by DNA methylation, genome wide epigenetic reexpression profiles were generated for two ovarian cancer cell lines. […] Genes showing potential methylation-based silencing were identified if they were undetectable in the untreated cells, but re-expressed by 5-Aza-dC treatments. Using these criteria 947 and 1091 probesets were identified in A2780 and CaOV3 cells respectively, that were reactivated.
# CaOV3 cells = experiment: Pharmacological reactivation of methylated genes by 5-Aza-dC, Affymetrix U133 plus 2 expression arrays, CaOV3; settings: CaOV3, 2.5 μM, 24 hours
# Experimental: as §1, §2, §3
compound,measurement,setting,value
"Nc1ncn([C@H]2C[C@H](O)[C@@H](CO)O2)c(=O)n1 [5-Aza-dC, 5-aza-2′ deoxycytidine]",re-expression and demethylation of the methylated gene DLEC1,DLEC1,induce re-expression and demethylation
same,"probesets reactivated (undetectable in untreated cells, re-expressed by 5-Aza-dC)",A2780 cells; HGU133 plus 2.0,947 probesets
same,Fold Change 5-aza-dC vs,"A2780 cells; ARMXC1 mRNA, probeset 218694_at",1.19
same,Fold Change 5-aza-dC vs,"A2780 cells; HSPA2 mRNA, probeset 211538_s_at",33.78
same,Fold Change 5-aza-dC vs,"A2780 cells; IL18 mRNA, probeset 206295_at",1.20
same,Fold Change 5-aza-dC vs,"A2780 cells; LTBP2 mRNA, probeset 223690_at",1.57
same,Fold Change 5-aza-dC vs,"A2780 cells; PAPLN mRNA, probeset 226435_at",2.78
same,Fold Change 5-aza-dC vs,"A2780 cells; PARVA mRNA, probeset 222454_s_at",1.78
same,Fold Change 5-aza-dC vs,"A2780 cells; PEG3 mRNA, probeset 209242_at",3.87
same,Fold Change 5-aza-dC vs,"A2780 cells; PYCARD mRNA, probeset 221666_s_at",3.72
same,Fold Change 5-aza-dC vs,"A2780 cells; SCIN1 mRNA, probeset 1552365_at",1.28
same,Fold Change 5-aza-dC vs,"A2780 cells; SGNE1 mRNA, probeset 203889_at",4.15
same,Fold Change 5-aza-dC vs,"A2780 cells; SOCS1 mRNA, probeset 210001_s_at",4.80
same,Fold Change 5-aza-dC vs,"A2780 cells; SPOCK2 mRNA, probeset 202524_s_at",1.41
same,Fold Change 5-aza-dC vs,"A2780 cells; ZNF177 mRNA, probeset 207417_s_at",1.61
same,Fold Change 5-aza-dC vs,"A2780 cells; ZNF542 mRNA, probeset 239250_at",2.35
same,Fold Change 5-aza-dC vs,"CaOV3 cells; BMP6 mRNA, probeset 206176_at",1.25
same,Fold Change 5-aza-dC vs,"CaOV3 cells; CST6 mRNA, probeset 231248_at",1.96
same,"probesets reactivated (undetectable in untreated cells, re-expressed by 5-Aza-dC)",CaOV3 cells; HGU133 plus 2.0,1091 probesets
same,Fold Change 5-aza-dC vs,"CaOV3 cells; ICAM4 mRNA, probeset 207194_s_at",1.89
same,Fold Change 5-aza-dC vs,"CaOV3 cells; KLF4 mRNA, probeset 220266_s_at",3.78
same,Fold Change 5-aza-dC vs,"CaOV3 cells; LOC134466 RNA, probeset 244289_at",1.18
same,Fold Change 5-aza-dC vs,"CaOV3 cells; PTGER mRNA, probeset 213933_at",1.32
same,Fold Change 5-aza-dC vs,"CaOV3 cells; TLE4 mRNA, probeset 204872_at",1.20

# Reference: patent US20140106354A1, “Method of Diagnosing Cancer” (GARVAN INSTITUTE OF MEDICAL RESEARCH, priority 2011, published 2014)
